Measurements from publication PMC9967645, “OAT3 Participates in Drug–Drug Interaction between Bentysrepinine and Entecavir through Interactions with M8—A Metabolite of Bentysrepinine—In Rats and Humans In Vitro” (Molecules, 2023).
Values joined by “and” are separate entries in the source; they are usually repeats but may differ in a detail not shown here. Equal values may be shown once. Read-outs that look alike come from different tables or passages of the source.

What was measured:
[1] = biological target: T1, hOAT3 (Homo sapiens, UniProt Q8TCC7); experiment: In vitro uptake assay in hOAT3-HEK293 cells
T1 sequence (Q8TCC7 1-542): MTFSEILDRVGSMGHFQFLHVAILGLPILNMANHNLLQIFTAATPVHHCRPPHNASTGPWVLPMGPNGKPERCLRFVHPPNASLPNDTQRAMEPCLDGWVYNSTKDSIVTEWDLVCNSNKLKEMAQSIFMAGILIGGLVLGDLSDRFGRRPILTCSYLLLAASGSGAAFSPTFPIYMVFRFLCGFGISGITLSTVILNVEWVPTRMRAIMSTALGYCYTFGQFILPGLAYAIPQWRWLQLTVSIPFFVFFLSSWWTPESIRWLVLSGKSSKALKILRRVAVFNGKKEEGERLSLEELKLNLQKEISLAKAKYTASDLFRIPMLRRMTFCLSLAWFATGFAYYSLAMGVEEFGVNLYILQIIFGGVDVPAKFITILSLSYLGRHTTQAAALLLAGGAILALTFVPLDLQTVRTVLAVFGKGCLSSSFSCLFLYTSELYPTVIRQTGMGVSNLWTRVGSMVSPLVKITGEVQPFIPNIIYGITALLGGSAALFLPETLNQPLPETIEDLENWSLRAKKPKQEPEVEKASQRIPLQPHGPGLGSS
Experimental: The hOAT1-HEK293, hOAT3-HEK293 and mock cells were cultured in Dulbecco modified Eagle medium (DMEM) containing 10% fetal bovine serum (FBS) and 1% penicillin/streptomycin in an atmosphere of 5% CO2 air at 37 °C. The HEK293 cells were plated on 24-well plates at a density of 5 × 10^5 cells/well. […] Uptake assay was initiated by adding 1 mL of the transporter buffer containing Y101, M8, ETV or probe substrate. Following incubation with gentle shaking, the uptake was terminated at designated time by removing the transporter buffer and washing cells three times with 1 mL of ice-cold HBSS. Next, substrates of Y101, M8, ETV, PAH and ES in cell monolayer were released by lysing the cells with 0.3 mL of 0.1% Triton X-100 for 2 h and determined by liquid chromatography–tandem mass spectrometry (LC–MS/MS). In the time-course uptake assay, Y101 (2.0 µM) and M8 (10 µM) in the presence or absence of PRO (100 µM) were measured in hOAT1-HEK293, hOAT3-HEK293 and mock cells. The concentration-dependent uptake of M8 was determined in hOAT3-HEK293 cells, and incubation time (5 min) was optimized. The uptake of M8 (10 µM) with or without ETV was examined in hOAT3-HEK293 cells. The uptake of ETV (10 µM) with or without Y101 or M8 was also measured in hOAT1-HEK293 and hOAT3-HEK293 cells, respectively. Furthermore, PAH and ES at concentrations of 10 µM were used as positive control in hOAT1-HEK293 and hOAT3-HEK293 cells, respectively. Protein concentrations were measured by the bicinchoninic acid procedure (Solarbio, Beijing, China) using bovine serum albumin as the standard.
(§1) Biological samples were prepared as previously described. Aliquots (50 µL) of urine, plasma, kidney homogenates, or cell lysates were individually mixed with 150 µL methanol and 50 µL working solution of internal standard (acetaminophen or bestatin), followed by vortexing for 1 min and centrifuging at 13,800 g for 10 min. […] The resulting supernatant (1 µL) was subjected to LC-MS/MS for the assessment of Y101, M8, M9 and ETV, respectively. […] The concentrations of ETV, Y101, M8 and M9 were determined by an AB QTRAP 5500 LC–MS/MS System (Foster City, CA, USA) as previously described. Chromatographic separation was achieved on an Infinitylab Poroshell 120 EC-C18 (50 mm × 2.1 mm, 2.7 µm, Agilent Technology Inc., CA, USA) at 40 °C. The mobile phase consisted of formic acid-acetonitrile (0.05:100, v/v) and a mixture of 1 mmol-ammonium acetate-acetonitrile-formic acid (95:5:0.05, v/v/v) at a flow rate of 0.3 mL/min. […] Analyst1.5.2 software was used for data processing and analysis.

[2] = system: rat kidney slices; experiment: In vitro uptake assay in kidney slices; type: in vitro ADME; conditions: M8 5.0 µM; for inhibition of the uptake of M8 in kidney slices: PCG 0.2 and 0.5 mM, PRO 0.1 mM, PAH 0.2 and 0.5 mM, TEA 0.2 mM, 10 min, ETV 10 µM
Experimental: The renal cortex was cut into 300 µm slices with a ZQP-86 tissue slicer (Shanghai Zhisun Equipment Co., Ltd., Shanghai, China; surface area 0.15 cm^2). […] Next, the kidney slices were prepared as previously described. Two slices per well were placed into 37 °C buffer filled with oxygen for pre-incubation for 3 min and then gently moved into a 24-well cell culture plate containing 1 mL oxygenated buffer at 4 °C or 37 °C. The uptakes of ETV (10 µM), Y101 (2.0 µM), M8 (5.0 µM) and M9 (1.0 µM) were measured at 5, 10, 15 and 30 min after the treatment, respectively. […] Following incubation at the designated time, kidney slices were collected, rinsed with ice-cold buffer three times, and dried on filter paper. After weighing and homogenization (IKA-T 10 homogenizer; IKA, Staufen, Germany), the concentrations of Y101, M8, M9 and ETV of kidney slice homogenates were determined as in the description below.
as §1

[3] = Pharmacokinetic study in rats, intravenous Y101 with or without PRO; type: in vivo, Sprague–Dawley (SD) rats; conditions: for Tmax / half-life / AUC(0-inf) / AUC(0-t) / Cmax: male, Sprague-Dawley, rat, plasma, iv, 25 mg/kg, n = 3
Experimental: The effect of PRO on the pharmacokinetics of Y101 was studied in rats. Male rats surgically prepared with indwelling jugular cannula were randomly divided into two groups (n = 3): (1) Y101 alone (25 mg/kg) as a control and (2) Y101 + PRO (25 mg/kg for Y101 and 100 mg/kg for PRO) as an experimental group. The intravenous dose of Y101 was prepared as previously described. Both Y101 and PRO were injected by caudal vein to rats at volume of 5 mL/kg.
(§2) Following administration, serial blood samples were collected through jugular vein pre-dose (0 h) and post-dose at 0.033, 0.083, 0.25, 0.5, 1, 1.5, 2, 3, 4, 6, 9, 12, 24 and 30 h in heparinized Eppendorf tubes. The resulting samples were centrifuged at 13,800× g at 4 °C for 5 min to obtain plasma. All plasma samples were stored at −70 °C until analysis.
(§3) Biological samples were prepared as previously described.
(§4) Non-compartmental analysis with Phenix WinNonlin (version 8.1; Pharsight, Certara Corp, Princeton, NJ) was used to calculate the main pharmacokinetic parameters of ETV, Y101, M8 and M9 for individual rats. The observed values were reported for maximum concentration (Cmax) and time to reach maximum concentration (Tmax), while the area under the plasma concentration–time curve (AUC) was calculated via the default trapezoidal-up, log-trapezoidal-down approach.

[4] = Pharmacokinetic DDI study in rats, intravenous Y101 and/or ETV; type: in vivo, Sprague–Dawley (SD) rats; conditions: Sprague-Dawley, rat, plasma, n = 4
Experimental: (§5) Additionally, DDI between Y101 and ETV was investigated by monitoring time-course plasma Y101 in rats with surgery as described above. Animals were randomly placed into three groups (n = 4): (1) Y101 alone (25 mg/kg for intravenous treatment and 60 mg/kg for oral administration); (2) ETV (0.06 mg/kg); and (3) Y101 (25 mg/kg for intravenous treatment and 60 mg/kg for oral administration) + ETV (0.06 mg/kg). ETV was dissolved in saline at concentration of 12 µg/mL. Rats received an oral or intravenous dose of Y101 and/or ETV at volume of 5 mL/kg. The doses used in in vivo pharmacokinetic studies were selected in accordance with therapeutic doses of Y101 and ETV commonly used clinically and in previous studies.
as §2, §3, §4

[5] = Pharmacokinetic DDI study in rats, oral Y101 and/or ETV; type: in vivo, Sprague–Dawley (SD) rats; conditions: Sprague-Dawley, rat, plasma, n = 4
Experimental: as §5, §2, §3, §4

[6] = Renal excretion study in rats (cumulative urinary excretion, renal clearance); type: in vivo, Sprague–Dawley (SD) rats; conditions: for CL renal: Sprague-Dawley, rat, urine, iv, read-out: CLR (renal clearance) (converted)
Experimental: To investigate the effects of PRO on the renal excretion of Y101 and its metabolites, rats received an intravenous dose of Y101 (25 mg/kg) or Y101 + PRO (25 mg/kg for Y101 and 100 mg/kg for PRO) via the caudal vein. In order to verify the DDI between Y101 and ETV in renal excretion, rats received an intravenous dose of Y101 (25 mg/kg) and/or ETV (0.06 mg/kg) by caudal vein.
[…] Subsequently, urine samples were stored at −70 °C until analysis. The cumulative urinary excretion and renal clearance (CLR) were calculated as previously described.
as §3

[7] = i.v. Y101 25 mg/kg + PRO 100 mg/kg vs Y101 alone
[8] = i.v. Y101 25 mg/kg + PRO 100 mg/kg
[9] = i.v. Y101 25 mg/kg + ETV 0.06 mg/kg
[10] = oral Y101 60 mg/kg + ETV 0.06 mg/kg

SMILES: C[C@]12CC[C@@H]3c4ccc(OS(=O)(=O)[O-])cc4CC[C@H]3[C@@H]1CCC2=O.[Na+] [ES, Estrone 3-sulfate sodium salt, reference compound]
- substrate of hOAT3 (uptake in hOAT3-HEK293 vs mock-HEK293 cells) ([1]; Y101 2.0 µM, M8 10 µM, ES 10 µM): selectively accumulated

SMILES: CCCN(CCC)S(=O)(=O)c1ccc(C(=O)O)cc1 [PRO, probenecid, reference compound]
- inhibition of the uptake of ES in hOAT3-HEK293 cells ([1]; ES 10 µM, PRO 100 µM, 10 min): inhibited in the presence of PRO
- inhibition of the uptake of M8 in hOAT3-HEK293 cells ([1]; M8 10 µM, PRO 100 µM, ETV 10 µM): inhibited by the presence of PRO
- inhibition of the uptake of M8 in kidney slices [2]: inhibited significantly

SMILES: CC1(C)S[C@@H]2[C@H](NC(=O)Cc3ccccc3)C(=O)N2[C@H]1C(=O)O [PCG, benzylpenicillin]
- inhibition of the uptake of M8 in kidney slices [2]: inhibited significantly

SMILES: C[N+](C)([O-])CCOc1ccc(CC(NC(=O)c2ccccc2)C(=O)O)cc1 (stereo not drawn) [M9]
- elevation in AUC value on co-administration of PRO [3, 7]: 56%
- increase in Cmax value on co-administration of PRO [3, 7]: 1.4 fold
- Tmax [3, 8]: 1.33 h
- half-life [3, 8]: 79.2 min
- AUC(0-inf) [3, 8]: 536 ng·h/mL
- AUC(0-t) [3, 8]: 527 ng·h/mL
- Cmax [3, 8]: 219 ng/mL
- AUC(0-inf) ([3]; i.v. Y101 25 mg/kg alone): 343 ng·h/mL
- AUC(0-t) ([3]; i.v. Y101 25 mg/kg alone): 335 ng·h/mL
- Cmax ([3]; i.v. Y101 25 mg/kg alone): 156 ng/mL
- Tmax ([3]; i.v. Y101 25 mg/kg alone): 1.17 h
- half-life ([3]; i.v. Y101 25 mg/kg alone): 60.6 min
- AUC(0-inf) [4, 9]: 471 ng·h/mL
- AUC(0-t) [4, 9]: 464 ng·h/mL
- Cmax [4, 9]: 171 ng/mL
- AUC(0-inf) ([4]; i.v. Y101 25 mg/kg alone): 553 ng·h/mL
- AUC(0-t) ([4]; i.v. Y101 25 mg/kg alone): 547 ng·h/mL
- Cmax ([4]; i.v. Y101 25 mg/kg alone): 134 ng/mL
- Tmax [4, 9]: 1.25 h
- half-life [4, 9]: 108 min
- Tmax ([4]; i.v. Y101 25 mg/kg alone): 1.13 h
- half-life ([4]; i.v. Y101 25 mg/kg alone): 68.4 min
- AUC(0-inf) [5, 10]: 657 ng·h/mL
- AUC(0-t) [5, 10]: 645 ng·h/mL
- Cmax [5, 10]: 127 ng/mL
- AUC(0-inf) ([5]; oral Y101 60 mg/kg alone): 645 ng·h/mL
- AUC(0-t) ([5]; oral Y101 60 mg/kg alone): 641 ng·h/mL
- Cmax ([5]; oral Y101 60 mg/kg alone): 144 ng/mL
- Tmax [5, 10]: 2.5 h
- half-life [5, 10]: 87.6 min
- Tmax ([5]; oral Y101 60 mg/kg alone): 3 h
- half-life ([5]; oral Y101 60 mg/kg alone): 69.6 min
- CL renal ([6]; 25 mg/kg, i.v. Y101 25 mg/kg + PRO 100 mg/kg): 2 mL/min/kg
- CL renal ([6]; 25 mg/kg, i.v. Y101 25 mg/kg alone (Table 1, control of PRO study)): 2.08 mL/min/kg
- CL renal ([6]; 25 mg/kg, i.v. Y101 25 mg/kg alone (Table 2, control of ETV study)): 2.47 mL/min/kg
- CL renal [6, 9]: 2.67 mL/min/kg
- cumulative excretion in the urine ([6]; i.v. Y101 25 mg/kg + ETV 0.06 mg/kg, at 30 h post-dose): 1.50 ± 0.232 % of the dose
- cumulative urinary excretion ([6]; i.v. Y101 25 mg/kg + PRO 100 mg/kg, 0 to 48 h): 1.36 ± 0.106%
- cumulative urinary excretion ([6]; i.v. Y101 25 mg/kg alone, at 48 h post-dose): 1.42 ± 0.04 % of the dose and 1.42 % of the dose
- time and temperature dependence of uptake in kidney slices ([2]; 37 °C vs 4 °C, Y101 2.0 µM, M9 1.0 µM, 5 to 30 min): did not show significant time or temperature dependence
